Laboratory results published in article PMC9569529, “Safe and Efficient Sigma1 Ligand: A Potential Drug Candidate for Multiple Sclerosis” (International Journal of Molecular Sciences, 2022).

Assays:
SH-SY5Y = assay: Cytotoxicity in human neuroblastoma cell line (MTT/MTS); format: cell-based; conditions: 72 h
Procedure: Toxicity analysis was performed in the human neuroblastoma cell line (SH-SY5Y), which was cultured in Dulbecco’s Modified Eagle Medium (DMEM, Gibco) supplemented with 2 mM L-glutamine (Invitrogen, Thermo Fisher Scientific Inc. Waltham, MA, USA), […] streptomycin (Invitrogen), 100 IU/mL penicillin (Invitrogen), 1 mM non-essential amino acids (Invitrogen) and 10% (v/v) heat inactivated fetal bovine serum (Sigma Aldrich, Burlington, MA, USA) and grown at 37 °C in a humidified incubator with 5% CO2. […] After 72 h of incubation, cell growth was estimated by the colorimetric MTT assay (CellTiter 96® aqueous one solution cell proliferation assay-MTS, Promega, Madison, WI, USA) according to the manufacturer’s protocol. Absorbance was read at 490 nm and results were expressed as % from the control condition considered as 100%.

S. typhimurium TA1537 = assay: Ames test; conditions: 7i 40 µg/plate
S. typhimurium TA102 = conditions: Salmonella typhimurium
S. typhimurium TA1535 = conditions: 7i 40 µg/plate
Caco-2 cell line = assay: Bidirectional permeability in Caco-2 (pH 6.5/7.4); format: in vitro ADME, human; conditions: Papp(B-A)/Papp(A-B), pH 6.5/7.4
Procedure: (§1) The compound was classically evaluated at 10 µM for all the ADME analyses. Bidirectional permeability (apical A to basolateral B pH 6.5/7.4 and basolateral B to apical A pH 7.4/6.5) was assessed in the epithelial colorectal adenocarcinoma cell line (Caco-2 cell line). Results were expressed as × 10^−6cm/s (Papp) and as % recovery. Efflux ratio, i.e., Papp(B-A)/Papp(A-B), was calculated. Plasma protein binding was analyzed by HPLC-MS/MS after 4-h incubation at 37 °C, as described by Banker et al.. Concentration was evaluated by LC/MS-MS. CYP inhibition was performed in human liver microsomes as described in [61]. Analysis of the respective metabolites. was performed by HPLC-MS/MS. Transporter inhibition analysis was also performed in overexpressing cell lines. Respective metabolites for each specific transporter substrate were analyzed by fluorometry or scintillation counting and % inhibition of control values were calculated. P-glycoprotein transporter substrate assessment was performed by bidirectional permeability analysis (apical A to basolateral B pH 7.4/7.4 and basolateral B to apical A pH 7.4/7.4) in the Caco-2 cell line with and without verapamil, as described in [59]. Results were expressed as ×10^−6 cm/s (Papp) and as % recovery. The efflux ratio, i.e., Papp(B-A)/Papp(A-B), was calculated. CYP450 induction characterization was performed on human hepatocytes. The mRNA levels of 7 different CYPs were analyzed by qPCR, as described in [72]. The compound was evaluated at 1, 10 and 100 µM. Fold-induction values were determined and compared to cut-off values, as defined for each CYP isozyme in each hepatocyte lot.

P-gp [1] = system: T1, P-gp; assay: P-gp substrate assessment, Caco-2 with and without verapamil; format: in vitro ADME; conditions: human
T1 construct: in the Caco-2 cell line with and without verapamil; host or cells: Caco-2
Procedure: as §1

P-gp [2] = target: T2, P-gp (Homo sapiens, UniProt P08183); assay: as above; format: in vitro ADME
T2 construct: in the Caco-2 cell line with and without verapamil; host or cells: Caco-2
Procedure: as §1

[3] = system: experimental autoimmune encephalomyelitis (EAE); assay: Relapsing EAE (PLP 139-151), curative protocol; format: in vivo, female SJL/J mice
TK6 cells = assay: In vitro micronucleus test
Procedure: The frequency of micronucleated (MN) cells was determined out of at least 2000 mononucleated cells.

[4] = +S9, positive control 2-anthramine 0.5
[5] = 3 h treatment + 24 h recovery, +S9, 68.75 µg/mL
[6] = 3 h treatment + 24 h recovery, +S9, 137.5 µg/mL
[7] = 3 h treatment + 24 h recovery, +S9, 275 µg/mL
[8] = 3 h treatment + 24 h recovery, −S9, 68.78 µg/mL
[9] = 3 h treatment + 24 h recovery, −S9, 137.5 µg/mL
[10] = 3 h treatment + 24 h recovery, −S9, 275 µg/mL
[11] = 27 h continuous treatment, −S9, 68.75 µg/mL
[12] = 27 h continuous treatment, −S9, 137.5 µg/mL
[13] = 27 h continuous treatment, −S9, 275 µg/mL

T2 sequence (P08183 whole entry): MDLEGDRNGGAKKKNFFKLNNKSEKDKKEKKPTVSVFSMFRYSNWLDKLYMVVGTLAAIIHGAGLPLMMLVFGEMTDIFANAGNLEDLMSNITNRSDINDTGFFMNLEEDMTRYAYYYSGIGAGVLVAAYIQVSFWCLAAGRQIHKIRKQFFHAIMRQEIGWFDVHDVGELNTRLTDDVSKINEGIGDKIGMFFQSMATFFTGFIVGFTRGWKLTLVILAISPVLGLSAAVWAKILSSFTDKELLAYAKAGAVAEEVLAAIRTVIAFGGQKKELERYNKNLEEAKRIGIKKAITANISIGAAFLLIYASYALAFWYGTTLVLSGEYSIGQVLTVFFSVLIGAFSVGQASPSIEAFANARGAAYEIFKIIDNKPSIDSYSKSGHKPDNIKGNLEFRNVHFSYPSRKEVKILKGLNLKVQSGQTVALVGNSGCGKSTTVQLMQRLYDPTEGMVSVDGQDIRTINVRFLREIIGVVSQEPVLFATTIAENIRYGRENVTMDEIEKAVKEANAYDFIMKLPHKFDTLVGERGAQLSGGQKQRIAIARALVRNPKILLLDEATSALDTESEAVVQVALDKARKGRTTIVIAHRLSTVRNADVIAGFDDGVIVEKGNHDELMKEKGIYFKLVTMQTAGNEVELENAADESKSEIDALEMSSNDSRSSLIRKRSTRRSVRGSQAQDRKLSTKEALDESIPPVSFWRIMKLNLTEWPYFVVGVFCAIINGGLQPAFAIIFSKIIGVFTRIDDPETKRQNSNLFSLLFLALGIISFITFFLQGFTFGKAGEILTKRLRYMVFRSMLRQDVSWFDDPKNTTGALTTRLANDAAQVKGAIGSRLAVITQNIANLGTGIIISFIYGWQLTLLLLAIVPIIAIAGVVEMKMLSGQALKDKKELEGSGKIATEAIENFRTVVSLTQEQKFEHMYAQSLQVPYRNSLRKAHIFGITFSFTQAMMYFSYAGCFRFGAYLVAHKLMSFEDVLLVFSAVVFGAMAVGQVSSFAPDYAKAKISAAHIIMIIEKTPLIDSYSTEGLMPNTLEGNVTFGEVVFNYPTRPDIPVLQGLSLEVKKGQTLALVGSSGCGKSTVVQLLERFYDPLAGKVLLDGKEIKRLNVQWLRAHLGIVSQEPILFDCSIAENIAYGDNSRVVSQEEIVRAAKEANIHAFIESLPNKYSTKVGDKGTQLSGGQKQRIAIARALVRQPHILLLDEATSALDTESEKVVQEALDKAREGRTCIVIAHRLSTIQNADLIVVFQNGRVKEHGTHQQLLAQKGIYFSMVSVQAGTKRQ

O=C(NCCCNCc1ccccc1)c1ccc(Cl)cc1 [compound 7i-deMe]
inhibition at 100 µM (SH-SY5Y): 77%

CN(CCCNC(=O)c1ccc(Cl)cc1)Cc1ccccc1 [compound 7i]
Ames TA1537 +S9 (Mean revertants/well per title) (S. typhimurium TA1537; [4]): 1.1 | Ames TA1537 −S9 (Mean revertants/well per title) (S. typhimurium TA1537; −S9, positive control 9-amino-acridine 1.56): 0.9 | Ames TA102 +S9 (Mean revertants/well per title) (S. typhimurium TA102): 1.0 | Ames TA102 −S9 (Mean revertants/well per title) (S. typhimurium TA102): 0.7 | Ames TA1535 +S9 (Mean revertants/well per title) (S. typhimurium TA1535; [4]): 0.9 | Ames TA1535 −S9 (Mean revertants/well per title) (S. typhimurium TA1535; −S9, positive control MNNG 0.25): 1.3 | e-ratio (efflux ratio) (Caco-2 cell line): 2.3 | Papp A→B at 10 µM (P-gp [1]; pH 7.4, Caco-2, 10 µM, with verapamil, read-out: P-gp substrate, Verapamil, A/B pH7.4/7.4): 28 ×10⁻⁶ cm/s | Papp B→A at 10 µM (P-gp [1]; pH 7.4, Caco-2, 10 µM, with verapamil, read-out: P-gp substrate, Verapamil, B/A pH7.4/7.4): 16.9 ×10⁻⁶ cm/s | efflux ratio at 10 µM (P-gp [1]; Caco-2, pH 7.4/7.4, with verapamil, read-out: P-gp substrate, Verapamil, e-ratio): 0.6 | P-gp substrate (conclusion) (P-gp [2]; comparison of efflux ratios with/without verapamil): not a substrate | Papp A→B at 10 µM (P-gp [2]; human, pH 7.4, Caco-2, 10 µM, PBS (no verapamil), read-out: P-gp substrate, PBS, A/B pH7.4/7.4): 45.8 ×10⁻⁶ cm/s | Papp B→A at 10 µM (P-gp [2]; human, pH 7.4, Caco-2, 10 µM, PBS (no verapamil), read-out: P-gp substrate, PBS, B/A pH7.4/7.4): 11.7 ×10⁻⁶ cm/s | efflux ratio at 10 µM (P-gp [2]; human, Caco-2, pH 7.4/7.4, PBS (no verapamil), read-out: P-gp substrate, PBS, e-ratio): 0.3 | EAE global evolution ([3]; 0.5 mg/kg i.p. daily for 15 days from score 2, followed 80 days): significantly reduced | EAE course ([3]; 0.5 mg/kg p.o. daily for 15 days from score 2): significant decrease | effect on EAE development after BD-1047 pretreatment ([3]; BD-1047 10 mg/kg i.p. 20 min before 7i): blocked | second relapse ([3]; i.p., 0.5 and 1 mg/kg daily for 15 days): No second relapse | effect on clinical score during treatment (first relapse) ([3]; i.p., 0.5 and 1 mg/kg, more pronounced at 1 mg/kg): visible from the first days of treatment | maximal clinical grade during the entire disease course ([3]; orally treated animals): ≤ 2 grade | clinical grade reached during the 15 days of administration ([3]; p.o. 0.5 mg/kg): 1 grade | rebound effect after end of treatment ([3]; p.o., as in i.p. administration): No rebound effect | MN/2 × 10^3 Cells (TK6 cells; [5]): 10.5 | RS (%) (TK6 cells; [5]): 106.1% | MN/2 × 10^3 Cells (TK6 cells; [6]): 6.0 | RS (%) (TK6 cells; [6]): 97.2% | MN/2 × 10^3 Cells (TK6 cells; [7]): 9.0 | RS (%) (TK6 cells; [7]): 103.7% | MN/2 × 10^3 Cells (TK6 cells; [8]): 6.0 | RS (%) (TK6 cells; [8]): 94.1% | MN/2 × 10^3 Cells (TK6 cells; [9]): 8.0 | RS (%) (TK6 cells; [9]): 92.7% | MN/2 × 10^3 Cells (TK6 cells; [10]): 8.0 | RS (%) (TK6 cells; [10]): 80.0% | MN/2 × 10^3 Cells (TK6 cells; [11]): 1.0 | RS (%) (TK6 cells; [11]): 86.6% | MN/2 × 10^3 Cells (TK6 cells; [12]): 7.0 | RS (%) (TK6 cells; [12]): 84.2% | MN/2 × 10^3 Cells (TK6 cells; [13]): 6.0 | RS (%) (TK6 cells; [13]): 70.1% | genotoxic characteristics (micronucleus, conclusion) (TK6 cells; TK6 cells, ±S9): no genotoxic characteristics
